Experimental data from ChEMBL document CHEMBL1157539, “Thousands of chemical starting points for antimalarial lead identification” (Nature, 2010).

What follows are molecules tested on Plasmodium falciparum (assay: GSK_TCMDC: Inhibition of Plasmodium falciparum 3D7 in whole erythrocytes, using parasite LDH activity as an index of growth.). Details: Plasmodium falciparum, 3D7.
Assay type: functional, organism-based

Row | Compound | XC50
1 | CCN(CC)CCN(Cc1ccc(-c2ccc(C(F)(F)F)cc2)cc1)C(=O)Cn1c(CCc2cc(F)c(F)cc2F)nc(=O)c2ccccc21 | 718 nM
2 | COc1ccc2[nH]c3ccccc3c(=O)c2c1 | 1000 nM
3 | O=C(Nc1ccc2c(c1)CCC2)N[C@H]1CCN(CCCCCNC(=O)C2CC2c2ccc(Cl)c(Cl)c2)C1 (some centres undefined) | 1080 nM
4 | COc1cc(Cc2cnc(N)nc2N)cc(OCC(C)(C)C(=O)O)c1OC | 1110 nM
5 | COc1ccc2c(CCNc3nc(SC)ncc3C(=O)NCCc3ccc(F)cc3)c[nH]c2c1 | 762 nM
6 | CC(=O)c1sc(Cc2nc3ccccc3s2)nc1C | 1070 nM
7 | CN1CCN(c2ccnc3cc4ccccc4cc23)CC1 | 947 nM
8 | c1cncc(CN2CCCN(c3ccc4c(c3)CCN(Cc3ccc(-c5ncc[nH]5)cc3)CC4)CC2)c1 | 747 nM
9 | CN(C)c1cccc(CN2CC=C(c3c[nH]c4ccc(Cl)cc34)CC2)c1 | 663 nM
10 | Cc1cccc2nc(-c3cccc(-c4ccc(C(=O)N5CCCCC5C(C)O)cc4)c3)[nH]c12 (centres undefined) | 371 nM
11 | O=C(Nc1ccc(F)c(Cl)c1)c1cc([N+](=O)[O-])cc2cn[nH]c12 | 315 nM
12 | COc1ccc(N2C(N)=NC(N)=NC2(C)C)cc1OC | 311 nM
13 | CCOc1cc(C(=O)Nc2ccc3nc(N4CCCCC4)cc(C)c3c2)cc(OCC)c1OCC | 825 nM
14 | COc1ccc2[nH]ccc(=NN=Cc3cccc(C)n3)c2c1 | 764 nM
15 | C=CCOc1ccc(C(=O)Nc2nonc2-c2ccc(OC)c(OC)c2)cc1 | 642 nM
16 | Cc1cccc2nc(O)c([N+](=O)[O-])c(O)c12 | 911 nM
17 | C=CCn1ccc2c3c(N)nc(N)nc3ccc21 | 70 nM
18 | COc1ccc(CNCc2ccc(-c3cccc(-c4nc5ccccc5[nH]4)c3)cc2)cc1 | 214 nM
19 | O=C(O)c1ccc2c(c1)N(C(=O)CNCc1ccc(F)cc1)CC(=O)N2CCCc1ccccc1 | 919 nM
20 | Cn1ccc(C(=O)Nc2ccc3c(c2)CN(Cc2ccc(N4CCCC4)o2)CCC3)n1 | 1310 nM
21 | O=C(Nc1ccc(C(F)(F)F)cc1)Nc1cccc([N+](=O)[O-])c1 | 865 nM
22 | COc1cccc(-c2cccc(-c3ccc(NC(=O)c4ccc([N+](=O)[O-])o4)cc3)n2)c1 | 515 nM
23 | Cn1nc(-c2ccccc2F)c2cc(C(=O)Nc3cccnc3)sc21 | 810 nM
24 | COc1ccccc1Nc1nc(NC2CCN(C)CC2)cc(-c2cccc(C(F)(F)F)c2)n1 | 919 nM
25 | CS(=O)(=O)c1ccc(CNCc2cccc(-c3ccc(-c4nc5cc(C(F)(F)F)ccc5[nH]4)cc3)c2)cc1 | 513 nM

Row | Compound | XC50
26 | COc1ccc(C(C(=O)NC2CCN(C[C@H](O)c3ccnc4ccc(OC)cc34)CC2)N2CCc3ccccc3C2)cc1 (some centres undefined) | 697 nM
27 | CC(C)CC(=O)N1CCNC[C@@H]1C(=O)NC1CC1 | 1090 nM
28 | COc1c(OC)c(OC)c2ccccc2c1CCNCCCCNCCc1c(OC)c(OC)c(OC)c2ccccc12 | 612 nM
29 | Cc1cccc2nc(-c3ccc(-c4ccc(CNCc5cccc(N)c5)cc4)s3)[nH]c12 | 751 nM
30 | CCC(C)(C)NC(C)C(O)c1ccc(C(F)(F)F)cc1 (centres undefined) | 750 nM
31 | CN1CCC(Oc2ccc(Nc3nccc(NCC(O)c4ccccc4)n3)cc2Cl)CC1 (centres undefined) | 785 nM
32 | c1ccc2c(Nc3ccc(OCCOCCOc4ccc(Nc5c6ccccc6nc6ccccc56)cc4)cc3)c3ccccc3nc2c1 | 284 nM
33 | CN1CCC(C(=O)N(Cc2ccc(-c3ccc(CNCCc4ccccc4)cn3)cc2)Cc2cccc(F)c2)CC1 | 935 nM
34 | CN1CCN(CCCN(Cc2cccc(-c3ccc(CNCCc4ccccc4)cc3)c2)C(=O)Nc2ccccc2)CC1 | 834 nM
35 | O=C(/C=C/c1ccc(Cl)c(Cl)c1)NCCCCCN1C2CCC1CC(c1c[nH]c3ccccc13)C2 (centres undefined) | 840 nM
36 | CC1CCC(NCc2c(O)ccc3ccccc23)CC1 (centres undefined) | 772 nM
37 | OCC1CCN(Cc2cccc(-c3ccc(-c4nc5cc(C(F)(F)F)ccc5[nH]4)cc3)c2)CC1 | 662 nM
38 | Cc1ccc(Nc2nc3cc(Nc4ccnc(Nc5cccc(CS(C)(=O)=O)c5)n4)ccc3o2)cc1 | 923 nM
39 | Fc1cc(Cl)ccc1Nc1ccnc(Nc2ccc3cn[nH]c3c2)n1 | 737 nM
40 | CCOc1cc(NCCCNc2ncc([N+](=O)[O-])cc2C)nc2ccccc12 | 692 nM
41 | Cc1onc(-c2ccccc2Cl)c1C(=O)Nc1cc(Cl)c(Cl)cc1Cl | 1180 nM
42 | Oc1ccc(CCNc2nc(NCc3cccc(-c4cc(C(F)(F)F)ccc4Cl)c3)nc(N3CCNCC3)n2)cc1 | 1780 nM
43 | CCc1cn(C)c2c(N3CCCC3=O)cc(C(=O)N[C@@H](Cc3ccccc3)[C@H](O)CNCc3cccc(OC)c3)cc12 | 784 nM
44 | CN1CCN(c2nsc3ccc(-c4ccc(NC(=O)Nc5ccccc5)cc4)cc23)CC1 | 180 nM
45 | O=C(C=Cc1ccc(F)c(Br)c1)N1CCC(CN2CCC(c3c[nH]c4ccccc34)CC2)CC1 | 745 nM
46 | CCC(C)CN1CCN(c2cc(NC(=O)c3cccs3)ccn2)C(C)C1 (centres undefined) | 997 nM
47 | COC(=O)c1ccc(CC(C)NCC(O)c2cccc(C(F)(F)F)c2)c(OC)c1 (centres undefined) | 804 nM
48 | COc1ccc2nccc(N(C)CC3(O)CCN(CCc4ccc5c(c4)NC(=O)CS5)CC3)c2n1 | 136 nM
49 | CCCC(=O)NC(c1ccc(C)cc1)c1ccc2cccnc2c1O (centres undefined) | 957 nM
50 | O=C(NCCc1ccccc1)[C@H](Cc1ccccc1)Nc1ccnc(NCC2CCCCC2)n1 | 1380 nM

Row | Compound | XC50
51 | N=c1cc(C=Cc2ccc(O)cc2)[nH]c2ccccc12 | 993 nM
52 | Cc1ccc(NC(=O)c2ccc(CN3CCCN(CC4CCCCC4)CC3)cc2)cc1C | 1020 nM
53 | c1nc(CCNc2nc(Nc3ccc4c(c3)OCO4)nc(NC3CCCC3)n2)c[nH]1 | 1150 nM
54 | Oc1ccc(CCNCCCCCCNCCc2ccc(Cl)c3ccccc23)cc1O | 716 nM
55 | COc1ccc(Cc2c(C)nc3nc(N)nc(N)c3c2C)cc1OC | 912 nM
56 | CCOC(=O)c1ccc(N2CCN(c3cc(Cl)ccc3C)CC2)c(NC(=O)Nc2ccc(Cl)c(Cl)c2)c1 | 584 nM
57 | Cc1cccc2nc(-c3ccc(-c4ccc(NC(=O)Nc5ccsc5)cc4)s3)[nH]c12 | 113 nM
58 | c1cc(CNC2Cc3ccc(-c4cccs4)cc3C2)cc(-n2ccnc2)c1 (centres undefined) | 594 nM
59 | CCOC(=O)c1sc(C(C)Nc2ccccc2)nc1-c1ccccc1 (centres undefined) | 333 nM
60 | Oc1ccc2[nH]cc(C3CCN(CCCCCCCCCN4CCC(c5c[nH]c6ccc(O)cc56)CC4)CC3)c2c1 | 314 nM
61 | O=C(N[C@@H](CC1CCCCC1)C(=O)NCCc1ccc(Cl)c(Cl)c1)c1ccc(O)c(-c2ccc(Cl)c(Cl)c2)c1 | 156 nM
62 | O=C(Nc1ccc(-c2ccccc2)c(OCCN2CCNCC2)c1)c1ccc(-c2ccc(Cl)cc2)cc1 | 779 nM
63 | Cc1cc(N2CCN(CC3CCN(C)CC3)CC2)nc(Nc2ccc(Cl)cc2)n1 | 698 nM
64 | O=C(NCc1ccc(F)cc1)c1cc(Br)cc(N2CCN(c3ccncc3)CC2)c1 | 1230 nM
65 | COc1ccc(C2N=C(N)N=C(N)N2c2ccc(Cl)cc2)cc1OC (centres undefined) | 1000 nM
66 | CC(=O)Nc1ccc(Cl)c(Cl)c1 | 41.6 nM
67 | Cc1ccccc1Cn1c(CN2CCC(C(=O)NC3CC3)CC2)cc2ccccc21 | 477 nM
68 | O=C(NC1CCN(Cc2ccccc2O)C1)c1cccc(C(F)(F)F)c1 (centres undefined) | 730 nM
69 | COc1ccc(CN(C)CCCCc2ccc(NC(=O)COc3cccc4sc5ccccc5c(=O)c34)cc2)cc1OC | 809 nM
70 | O=C(NC1CCN(c2ccnc3cc(Cl)ccc23)C1)c1cccc(F)c1 (centres undefined) | 179 nM
71 | OC(CNCc1cccc(Oc2ccc(Cl)cc2)c1)c1cc(C(F)(F)F)cc(C(F)(F)F)c1 (centres undefined) | 255 nM
72 | O=C(NCCCCNCC(Cc1cccc(O)c1)c1ccccc1)c1ccc(NC(=O)c2ccc(Cl)cc2)cc1 (centres undefined) | 1040 nM
73 | c1ccc2[nH]c(CN(Cc3nc4ccccc4[nH]3)Cc3nc4ccccc4[nH]3)nc2c1 | 668 nM
74 | CCNc1cc(C(=O)N[C@@H](Cc2ccccc2)[C@H](O)CNC(C)CC(C)C)c(F)c(N2CCCCS2(=O)=O)c1 (some centres undefined) | 1120 nM
75 | COc1ccc(CCN(C)CCOc2ccc(NC(=O)c3cccc4c(=O)c5cc(SC)ccc5[nH]c34)cc2)cc1OC | 740 nM

Row | Compound | XC50
76 | FC(F)(F)c1ccc2[nH]c(-c3cccc(-c4cccc(CN5CCN(c6ccncc6)CC5)c4)c3)nc2c1 | 158 nM
77 | Cc1ccc2nc(C)cc(Nc3ccccc3O)c2c1 | 791 nM
78 | O=C1CCCN1CCCNCc1cccc(-c2cccc(-c3nc4cc(C(F)(F)F)ccc4[nH]3)c2)c1 | 299 nM
79 | COc1ccc(C2=[N+]([O-])c3ccccc3C2=O)cc1 | 783 nM
80 | Cc1cc(-c2ccc(Cl)cc2)c2c(N)c(C(=O)Nc3ccc(F)cc3)sc2n1 | 818 nM
81 | Cc1cc(=O)c(-c2ccc(Oc3cccc(Cl)c3)cc2)c(C)[nH]1 | 602 nM
82 | NS(=O)(=O)c1cccc(-c2ccc3c(O)ncnc3c2)c1 | 946 nM
83 | CCOc1cccc(C(=O)Nc2cccc(CN3CCCN(Cc4ccc(O)cc4)CC3)c2)c1 | 824 nM
84 | CS(=O)(=O)NCCCNCc1cccc(-c2ccc(-c3nc4cc(C(F)(F)F)ccc4[nH]3)s2)c1 | 880 nM
85 | CC(C)(C)c1ccc(Cn2nc(C(=O)N3CCN(C(=O)C4CCCO4)CC3)c3ccccc32)cc1 (centres undefined) | 1320 nM
86 | O=C1OC2(CN1CC1CCN(Cc3ccc(O)cc3Cl)C1)c1ccccc1-c1ccccc12 (centres undefined) | 1170 nM
87 | CN1CCN(c2ccnc3ccc(NC(=O)Nc4ccc(-c5ccncc5)c(C(F)(F)F)c4)cc23)CC1 | 823 nM
88 | Cc1nnc2c(NC(=O)NC3CCCC3)cc3cc(-c4ccc(CN5CCCCC5)cc4)ccc3n12 | 948 nM
89 | Cc1nn(-c2ccccc2)c2sc(C(=O)N(CCCN(C)C)c3nc(-c4ccccc4)cs3)cc12 | 981 nM
90 | Cc1nc2ccc(NC(=O)c3cc(S(=O)(=O)N(C)C)ccc3Cl)cc2s1 | 816 nM
91 | COc1ccc2nc(C)cc(Nc3ccc(Oc4ccc(Cl)c5ccccc45)c(Cl)c3)c2c1 | 730 nM
92 | COc1ccc(Cn2ncc3c4c(N)nc(N)nc4ccc32)cc1OC | 3.2 nM
93 | CC(C)(C)c1nn(-c2ccccc2)c2[nH]c(=O)c(CNCCc3ccccc3)cc12 | 866 nM
94 | Clc1ccccc1OCc1ccccn1 | 994 nM
95 | Cc1ccc(-n2cc(CNCCc3nc(C)c[nH]3)c(-c3ccc(F)cc3)n2)cc1 | 1510 nM
96 | Cc1ccc(C)c(-n2c(SCC(=O)Nc3ccc(C(N)=O)cc3)nnc2-c2cccc(Cl)c2)c1 | 845 nM
97 | O=C(Nc1ccc(-n2ccc(C(F)(F)F)n2)cc1)c1cccs1 | 1070 nM
98 | COc1cc2c(cc1OC)CN(CCCCNC(=O)c1ccc(NC(=O)c3cc(Cl)cc(Cl)c3)cc1)CC2 | 778 nM
99 | CC1CCN(CCCNc2ccc(C(=O)Nc3ccc(C(F)(F)F)cc3)cc2[N+](=O)[O-])CC1 | 340 nM
